Laboratory results taken from US10251944B2, “Cancer vaccines” (Pfizer Inc., priority 2016, dated 2019).
Where “and” joins values, the source holds several entries; their conditions need not be identical. Identical values can stand only once.

Test system: TUBO tumor cells
Test: Subcutaneous TUBO tumor growth in BALB-neuT mice
Assay type: in vivo
Parameters: key to Subcutaneous tumor volumes: tumor volume in mm3
Settings: for Subcutaneous tumor volumes: BALB-neuT mice, individual animals, with control vaccine and isotype control monoclonal antibody, listed as IDO1 inhibitor, in mm³
Experimental: BALB-neuT mice were implanted on study day 0 with TUBO tumor cells by subcutaneous injection. Mice were dosed with 200 mg/Kg of 3-(5-fluoro-1H-indol-3-yl)pyrrolidine-2,5-dione (IDO1 inhibitor) or vehicle twice daily from study day 7 using oral gavage. Comparator groups were sham dosed with vehicle from study day 7 onwards. Appropriated mice were immunized on study day 10 with 1e10 Viral Particles of an adenovirus vector engineered to express rat HER2 (rHER2) (rHER2 vaccine) or vector lacking the rHER2 transgene (control vaccine), by intramuscular injection. Subsequently, 250 ug of an anti-CTLA4 antibody (murine monoclonal antibody to CTLA-4, clone 9D9) or an IgG2 isotype control monoclonal antibody was injected subcutaneously in close proximity to lymph nodes draining the site of adenovirus vector injection. Every two weeks thereafter, mice were immunized with 100 ug of a DNA plasmid encoding rHER2 (rHER2 vaccine) or a DNA plasmid lacking the rHER2 transgene (control vaccine) by electroporation. Subsequent to the DNA plasmid administration, 250 ug of the anti-CTLA4 antibody was injected subcutaneously in close proximity to lymph nodes draining the site of DNA plasmid injection. To track tumor progression, subcutaneous tumor volumes were measured twice a week throughout the study. Animals with subcutaneous tumor volumes that reached 2000 mm3 or displaying irreversible signs of disease were euthanized.

In the case of `O=C1CC(c2c[nH]c3ccc(F)cc23)C(=O)N1` (stereo not drawn) [001 inhibitor, 3-(5-fluoro-1H-indol-3-yl)pyrrolidine-2,5-dione], the “tumor growth rates (subcutaneous tumor volumes), in words” value (BALB-neuT mice with TUBO tumors, IDO1 inhibitor 200 mg/Kg twice daily oral, anti-CTLA4 250 ug s.c., rHER2 adenovirus then DNA) is reported as “No effect on tumor growth rates”, the Subcutaneous tumor volumes (Study Day 18) is reported as 87.17 and 43.33 and 77.07 and 67.44 and 136.82 and 73.84 and 62.25 and 84.25 and 115.90 and 47.77 and 40.28 and 81.38 and 130.43 and the Subcutaneous tumor volumes (Study Day 21) is reported as 91.03 and 64.93 and 113.76 and 113.10 and 163.91 and 75.81 and 78.22 and 89.04 and 182.85 and 58.23 and 54.88 and 135.90 and 127.97. For the same compound, the Subcutaneous tumor volumes (Study Day 24) was 161.46 and 92.35 and 169.45 and 127.09 and 198.49 and 100.08 and 101.79 and 140.26 and 284.27 and 88.35 and 55.22 and 110.30 and 155.81, the Subcutaneous tumor volumes (Study Day 27) was 163.11 and 110.42 and 171.37 and 129.44 and 240.05 and 125.82 and 123.19 and 186.49 and 361.01 and 112.48 and 80.13 and 147.33 and 241.15 and the Subcutaneous tumor volumes (Study Day 32) was 252.04 and 173.28 and 301.94 and 202.21 and 337.79 and 251.57 and 194.14 and 275.98 and 541.91 and 153.38 and 110.90 and 184.76 and 321.37. For the same compound, the Subcutaneous tumor volumes (Study Day 35) was 324.53 and 260.28 and 306.58 and 377.96 and 401.70 and 262.56 and 246.60 and 364.82 and 598.92 and 209.97 and 141.15 and 244.33 and 521.30, the Subcutaneous tumor volumes (Study Day 39) was 414.72 and 343.13 and 512.15 and 430.30 and 596.09 and 434.13 and 389.39 and 471.60 and 671.98 and 338.06 and 192.15 and 328.32 and 572.30 and the Subcutaneous tumor volumes (Study Day 42) was 603.00 and 408.33 and 574.86 and 574.25 and 680.54 and 551.64 and 463.99 and 601.50 and 820.44.
